From publication PMC9430770 (Microbiology Spectrum, 2022)

How the values were obtained:
[1] = target: mutant Eno1 (D263A, S269A, and K273A) (Candida albicans, UniProt P30575, D263A/K273A/S269A); test: SPR binding of BE to mutant Eno1
Source text: SPR, surface plasmon resonance; RU, response unit.
The benzene ring with hydroxyl group can form a cation-π interaction with K273 (Fig. 6C). To confirm that D263, S269, and K273 play crucial roles in interacting with BE, we have mutated these three amino acids (D263A, S269A, and K273A) in CaEno1.

C. albicans = test: Treatment in liquid YP medium with different carbon sources, then spotting on solid YPD; type: cell-based, Candida albicans; conditions: 128 μg/mL BE, 48 h
Source text: FIG 2 Eno1 is a target of BE. (A) Schematic diagram of synthesis label-BE. Label-BE is synthesized by intermediate TPD-10a with benzyl bromide structure and triacetylated BE. (B) The molecular structure of label-BE. Label-BE contains a trifluoromethylphenyl diazo heterocyclic propylene group (marked by a red dotted line) as a photoaffinity group to enhance the binding of label-BE to its target proteins and an alkyne group (marked by a blue dotted line) connected with an azide group (from the TAMRA-N3 or biotin-N3) by a copper-catalyzed azide-alkyne cycloaddition. (C) The molecular structures of TAMRA-N3 and biotin-N3. Both of them contain azide groups (marked by a blue dotted line) connected with an alkyne group of label-BE to highlight the target proteins of label-BE. (D) The competition experiment with BE and label-BE used the TAMRA-N3 as a reporter. C. albicans cell lysates were preincubated with 100 μM BE (lane 2) or not (lane 3). Subsequently, the two groups were incubated with 10 μM label-BE and irradiated with UV light at 365 nm and then treated with TAMRA-N3. After separation of SDS-PAGE, label-BE-targeted proteins were visualized by in-gel fluorescence scanning. The three fluorescent bands in lane 3 (indicated by red triangles) were cut out and pooled and then analyzed by LC-MS/MS. (E) The competition experiment with BE and label-BE used the biotin-N3 as a reporter. In the following enrichment with streptavidin-conjugated beads and separation by SDS-PAGE gel, targets of label-BE were visualized by Coomassie blue staining. The brighter band in lane 3 (indicated by red triangle) was then cut out and analyzed by LC-MS/MS. […] C. albicans cells were first treated with 128 μg/mL BE in liquid YP medium with either 3-PG (32 mg/mL), pyruvate (32 mg/mL), glucose (20 mg/mL), or glycerol (2% [vol/vol]) for 48 h and then were spotted (1:10 dilution) onto solid YPD medium and photographed after 48 h of incubation at 30°C. The red termination line represents inhibition; 3-PG, 3-phosphoglyceric acid. (G) The competition experiment with BE and label-BE used the TAMRA-N3 as a reporter by E. coli cell lysates containing recombinant C. albicans Eno1.
In order to further identify which glycolysis-related protein is the target of BE, we investigated the antifungal activity of BE in the media containing different intermediate products of glycolysis. 3-Phosphoglyceric acid (3-PG) is a downstream intermediate of Pgk1-catalyzed glycolysis but an upstream intermediate of Eno1-catalyzed glycolysis, while pyruvate is a downstream intermediate of Eno1-catalyzed glycolysis (Fig. 2F). […]

[2] = system: C. albicans eno1/eno1 mutant strain; test: Galleria mellonella infection model, eno1/eno1 strain; type: in vivo, Candida albicans; conditions: G. mellonella, 10 mg/kg
Description: To assess whether Eno1 is a therapeutic target of BE, we constructed a homozygous deletion strain for the ENO1 gene (eno1/eno1). We then investigated the difference in the antifungal efficacy of BE on the infections caused by the parent strain SN152 and the eno1/eno1 strain in the Galleria mellonella infection model. We divided the G. mellonella into 5 groups, with 10 larvae in each group. All 10 larvae died after a 24-h infection with the SN152 strain, while only 3 larvae died after 24 h when infected with the eno1/eno1 strain; the remaining larvae died within 7 days. Compared with the group infected with the parent strain, the survival time of the group infected with the eno1/eno1 strain was longer (P < 0.01) (Fig. 4A). […] The survival rate of larvae in the BE (10 mg/kg of body weight)-treated, SN152 strain-infected group was extended by 30%, compared with that in the group infected with the SN152 strain but without antifungal drug treatment (P < 0.001) (Fig. 4B). […] All 10 larvae in the BE-treated group died within 6 days, and all 10 larvae without BE treatment were killed within 7 days (Fig. 4C). However, FLC (10 mg/kg) can extend the survival rate of larvae infected by the eno1/eno1 strain by 60% (P < 0.01) (Fig. 4D) compared with the group infected with the eno1/eno1 strain without antifungal drug treatment.
FIG 4 Eno1 acts as a therapeutic target of BE. […] Each curve represents a group of 10 larvae (n =10) monitored daily for survival for up to 10 days after infection. […]
Virulence testing of C. albicans was done in Galleria mellonella as described previously ([56]). […] After growth in YPD media overnight at 30°C and 200 rpm, C. albicans SN152 cells or eno1/eno1 mutant cells were washed with PBS 3 times and diluted to the desired concentration (1 × 10^7 cells/mL) determined by counting with a hemacytometer. […] The death of G. mellonella was assessed daily and analyzed statistically by the Kaplan-Meier method (log-rank test).

Chain of mutant Eno1 (D263A, S269A, and K273A) (P30575 whole entry D263A/S269A/K273A): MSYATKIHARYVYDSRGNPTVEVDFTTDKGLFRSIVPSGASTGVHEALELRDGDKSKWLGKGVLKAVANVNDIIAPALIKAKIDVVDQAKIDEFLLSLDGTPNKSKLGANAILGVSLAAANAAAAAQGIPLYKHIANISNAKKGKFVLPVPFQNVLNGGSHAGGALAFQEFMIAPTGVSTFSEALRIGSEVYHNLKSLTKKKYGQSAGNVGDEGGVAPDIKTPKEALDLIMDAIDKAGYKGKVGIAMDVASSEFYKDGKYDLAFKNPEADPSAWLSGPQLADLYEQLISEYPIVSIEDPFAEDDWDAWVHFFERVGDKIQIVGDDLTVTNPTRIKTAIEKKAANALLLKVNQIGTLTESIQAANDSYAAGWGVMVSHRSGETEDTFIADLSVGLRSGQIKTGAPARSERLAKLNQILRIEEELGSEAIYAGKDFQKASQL

`O=c1cc(-c2ccccc2)oc2cc(O)c(O)c(O)c12` [BE, Baicalein] was tested, and the “binding detected by SPR analysis” value [1] was “no binding”, the antifungal activity (C. albicans; liquid YP medium with 3-PG (32 mg/mL)) was “strong antifungal activity” and the antifungal activity (C. albicans; liquid YP medium with glucose (20 mg/mL)) was “strong antifungal activity”. For the same molecule, the antifungal activity (C. albicans; liquid YP medium with glycerol (2% vol/vol)) was “no antifungal activity”, the antifungal activity (C. albicans; liquid YP medium with pyruvate (32 mg/mL)) was “no antifungal activity” and the “survival rate of larvae extended versus infected group without drug treatment” value [2] was “no significant effect”. For the same molecule, the “time within which all 10 larvae died” value ([2]; eno1/eno1-infected) was at most 6 days.
